“And” between values parts separate entries of the source, which are not always exact repeats. Equal entries are not always repeated. Toxic doses and inconclusive results are not listed.
Tested on: CD2F1 mice, L1210 leukemia ip, survival T/C
Experiment: NCI In Vivo Anticancer Drug Screen. Data for tumor model L1210 Leukemia (intraperitoneal) in CD2F1 (CDF1) mice
Conditions: higher = longer survival
Description: The antitumor activity of compounds was measured in mice bearing transplantable tumors. Survival or tumor size were measured and the results are expressed as the measurement made in the treated group (T) divided by the measurement made in the vehicle treated control group (C). The tumor model used in this assay is L1210 Leukemia (intraperitoneal) in CD2F1 (CDF1) mice

[1] = endpoint: mean survival time, dose: 100.0 mg/kg/injection, schedule: Q01DX009 (ip), vehicle: saline with Tween-80
[2] = endpoint: mean survival time, dose: 400.0 mg/kg/injection, schedule: Q01DX009 (ip), vehicle: saline with Tween-80
[3] = endpoint: mean survival time, dose: 100.0 mg/kg/injection, schedule: Q01DX001 (ip), vehicle: saline with Tween-80
[4] = endpoint: mean survival time, dose: 200.0 mg/kg/injection, schedule: Q01DX001 (ip), vehicle: saline with Tween-80
[5] = endpoint: mean survival time, dose: 400.0 mg/kg/injection, schedule: Q01DX001 (ip), vehicle: saline with Tween-80

Nc1nc(=O)n(C2OC(CO)C(O)C2O)cc1F (stereo not given)
T/C (endpoint: mean survival time, dose: 0.25 mg/kg/injection, schedule: Q01DX009 (ip), vehicle: saline): 121 % of control
T/C (endpoint: mean survival time, dose: 0.5 mg/kg/injection, schedule: Q01DX009 (sc), vehicle: saline): 97 % of control
T/C (endpoint: mean survival time, dose: 1.0 mg/kg/injection, schedule: Q03HX024 (ip), vehicle: saline): 346 % of control
T/C (endpoint: mean survival time, dose: 2.0 mg/kg/injection, schedule: Q01DX009 (sc), vehicle: saline): 121 % of control
T/C (endpoint: mean survival time, dose: 4.0 mg/kg/injection, schedule: Q01DX009 (ip), vehicle: saline): 157 % of control
T/C (endpoint: mean survival time, dose: 4.0 mg/kg/injection, schedule: Q08DX002 (ip), vehicle: saline): 106 % of control
T/C (endpoint: mean survival time, dose: 8.0 mg/kg/injection, schedule: Q01DX009 (sc), vehicle: saline): 152 % of control
T/C (endpoint: mean survival time, dose: 8.0 mg/kg/injection, schedule: Q03HX024 (ip), vehicle: saline): 540 % of control
T/C (endpoint: mean survival time, dose: 12.5 mg/kg/injection, schedule: Q01DX009 (ip), vehicle: saline): 218 % of control and 227 % of control
T/C (endpoint: mean survival time, dose: 16.0 mg/kg/injection, schedule: Q01DX009 (ip), vehicle: saline): 186 % of control and 194 % of control
T/C (endpoint: mean survival time, dose: 16.0 mg/kg/injection, schedule: Q03HX016 (ip), vehicle: saline): 248 % of control
T/C (endpoint: mean survival time, dose: 16.0 mg/kg/injection, schedule: Q03HX024 (oral), vehicle: saline): 327 % of control
T/C (endpoint: mean survival time, dose: 16.0 mg/kg/injection, schedule: Q08DX002 (ip), vehicle: saline): 114 % of control
T/C (endpoint: mean survival time, dose: 18.8 mg/kg/injection, schedule: Q01DX008 (ip), vehicle: saline): 189 % of control
T/C (endpoint: mean survival time, dose: 18.8 mg/kg/injection, schedule: Q01DX008 (oral), vehicle: saline): 167 % of control
T/C (endpoint: mean survival time, dose: 20.0 mg/kg/injection, schedule: Q01DX007 (ip), vehicle: saline): 195 % of control
T/C (endpoint: mean survival time, dose: 20.0 mg/kg/injection, schedule: Q01DX009 (ip), vehicle: saline): 187 % of control
T/C (endpoint: mean survival time, dose: 20.0 mg/kg/injection, schedule: Q04DX003 (ip), vehicle: saline): 152 % of control
T/C (endpoint: mean survival time, dose: 25.0 mg/kg/injection, schedule: Q01DX009 (ip), vehicle: saline): 215 % of control and 233 % of control
T/C (endpoint: mean survival time, dose: 32.0 mg/kg/injection, schedule: Q01DX009 (ip), vehicle: saline): 244 % of control
T/C (endpoint: mean survival time, dose: 32.0 mg/kg/injection, schedule: Q01DX009 (oral), vehicle: saline): 163 % of control
T/C (endpoint: mean survival time, dose: 32.0 mg/kg/injection, schedule: Q01DX009 (sc), vehicle: saline): 196 % of control
T/C (endpoint: mean survival time, dose: 32.0 mg/kg/injection, schedule: Q03HX008 (ip), vehicle: saline): 120 % of control
T/C (endpoint: mean survival time, dose: 37.5 mg/kg/injection, schedule: Q01DX008 (ip), vehicle: saline): 169 % of control
T/C (endpoint: mean survival time, dose: 37.5 mg/kg/injection, schedule: Q01DX008 (oral), vehicle: saline): 175 % of control
T/C (endpoint: mean survival time, dose: 40.0 mg/kg/injection, schedule: Q01DX007 (ip), vehicle: saline): 204 % of control
T/C (endpoint: mean survival time, dose: 40.0 mg/kg/injection, schedule: Q01DX009 (ip), vehicle: saline): 229 % of control
T/C (endpoint: mean survival time, dose: 40.0 mg/kg/injection, schedule: Q04DX003 (ip), vehicle: saline): 152 % of control
T/C (endpoint: mean survival time, dose: 50.0 mg/kg/injection, schedule: Q01DX009 (ip), vehicle: saline): 153 % of control and 166 % of control
T/C (endpoint: mean survival time, dose: 64.0 mg/kg/injection, schedule: Q01DX009 (ip), vehicle: saline): 221 % of control
T/C (endpoint: mean survival time, dose: 64.0 mg/kg/injection, schedule: Q01DX009 (oral), vehicle: saline): 176 % of control
T/C (endpoint: mean survival time, dose: 64.0 mg/kg/injection, schedule: Q03HX016 (ip), vehicle: saline): 377 % of control
T/C (endpoint: mean survival time, dose: 64.0 mg/kg/injection, schedule: Q03HX024 (oral), vehicle: saline): 90 % of control
T/C (endpoint: mean survival time, dose: 64.0 mg/kg/injection, schedule: Q08DX002 (ip), vehicle: saline): 116 % of control
T/C (endpoint: mean survival time, dose: 75.0 mg/kg/injection, schedule: Q01DX008 (oral), vehicle: saline): 202 % of control
T/C (endpoint: mean survival time, dose: 75.0 mg/kg/injection, schedule: Q04DX003 (ip), vehicle: saline): 182 % of control
T/C (endpoint: mean survival time, dose: 80.0 mg/kg/injection, schedule: Q01DX007 (ip), vehicle: saline): 161 % of control
T/C (endpoint: mean survival time, dose: 80.0 mg/kg/injection, schedule: Q01DX009 (ip), vehicle: saline): 117 % of control
T/C (endpoint: mean survival time, dose: 80.0 mg/kg/injection, schedule: Q04DX003 (ip), vehicle: saline): 157 % of control
T/C (endpoint: mean survival time, dose: 100.0 mg/kg/injection, schedule: Q01DX009 (ip), vehicle: saline): 113 % of control and 115 % of control
T/C (endpoint: mean survival time, dose: 128.0 mg/kg/injection, schedule: Q01DX001 (ip), vehicle: saline): 120 % of control
T/C (endpoint: mean survival time, dose: 128.0 mg/kg/injection, schedule: Q01DX001 (sc), vehicle: saline): 123 % of control
T/C (endpoint: mean survival time, dose: 128.0 mg/kg/injection, schedule: Q01DX009 (ip), vehicle: saline): 114 % of control
T/C (endpoint: mean survival time, dose: 128.0 mg/kg/injection, schedule: Q01DX009 (sc), vehicle: saline): 88 % of control
T/C (endpoint: mean survival time, dose: 128.0 mg/kg/injection, schedule: Q04DX003 (ip), vehicle: saline): 163 % of control
T/C (endpoint: mean survival time, dose: 128.0 mg/kg/injection, schedule: Q04DX003 (oral), vehicle: saline): 158 % of control
T/C (endpoint: mean survival time, dose: 150.0 mg/kg/injection, schedule: Q01DX001 (ip), vehicle: saline): 110 % of control
T/C (endpoint: mean survival time, dose: 150.0 mg/kg/injection, schedule: Q01DX001 (oral), vehicle: saline): 115 % of control
T/C (endpoint: mean survival time, dose: 150.0 mg/kg/injection, schedule: Q04DX003 (ip), vehicle: saline): 151 % of control
T/C (endpoint: mean survival time, dose: 200.0 mg/kg/injection, schedule: Q01DX009 (ip), vehicle: saline): 101 % of control
T/C (endpoint: mean survival time, dose: 256.0 mg/kg/injection, schedule: Q01DX009 (oral), vehicle: saline): 109 % of control
T/C (endpoint: mean survival time, dose: 256.0 mg/kg/injection, schedule: Q04DX003 (oral), vehicle: saline): 171 % of control
T/C (endpoint: mean survival time, dose: 300.0 mg/kg/injection, schedule: Q01DX001 (oral), vehicle: saline): 115 % of control
T/C (endpoint: mean survival time, dose: 300.0 mg/kg/injection, schedule: Q04DX003 (ip), vehicle: saline): 239 % of control
T/C (endpoint: mean survival time, dose: 512.0 mg/kg/injection, schedule: Q01DX001 (sc), vehicle: saline): 153 % of control
T/C (endpoint: mean survival time, dose: 512.0 mg/kg/injection, schedule: Q04DX003 (oral), vehicle: saline): 206 % of control
T/C (endpoint: mean survival time, dose: 600.0 mg/kg/injection, schedule: Q01DX001 (ip), vehicle: saline): 172 % of control
T/C (endpoint: mean survival time, dose: 600.0 mg/kg/injection, schedule: Q04DX003 (ip), vehicle: saline): 259 % of control
T/C (endpoint: mean survival time, dose: 1024.0 mg/kg/injection, schedule: Q01DX001 (ip), vehicle: saline): 161 % of control
T/C (endpoint: mean survival time, dose: 1024.0 mg/kg/injection, schedule: Q01DX001 (sc), vehicle: saline): 239 % of control
T/C (endpoint: mean survival time, dose: 1024.0 mg/kg/injection, schedule: Q04DX003 (ip), vehicle: saline): 286 % of control
T/C (endpoint: mean survival time, dose: 1024.0 mg/kg/injection, schedule: Q04DX003 (oral), vehicle: saline): 122 % of control
T/C (endpoint: mean survival time, dose: 1024.0 mg/kg/injection, schedule: Q08DX002 (ip), vehicle: saline): 250 % of control
T/C (endpoint: mean survival time, dose: 1200.0 mg/kg/injection, schedule: Q01DX001 (ip), vehicle: saline): 183 % of control

NCCNc1ccccc1C(=O)O
T/C (endpoint: median survival time, dose: 50.0 mg/kg/injection, schedule: Q04DX002 (ip), vehicle: saline with Tween-80): 111 % of control
T/C (endpoint: median survival time, dose: 100.0 mg/kg/injection, schedule: Q04DX002 (ip), vehicle: saline with Tween-80): 100 % of control
T/C (endpoint: median survival time, dose: 200.0 mg/kg/injection, schedule: Q04DX002 (ip), vehicle: saline with Tween-80): 100 % of control
T/C (endpoint: median survival time, dose: 400.0 mg/kg/injection, schedule: Q04DX002 (ip), vehicle: saline with Tween-80): 111 % of control

CC(C)(C)OC(=O)NCCCC(=O)O
T/C (endpoint: mean survival time, dose: 100.0 mg/kg/injection, schedule: Q04DX003 (ip), vehicle: saline with Tween-80): 93 % of control
T/C (endpoint: mean survival time, dose: 200.0 mg/kg/injection, schedule: Q04DX003 (ip), vehicle: saline with Tween-80): 90 % of control

CCOC(=O)C(C(=O)OCC)c1cc(NC(=O)c2ccccc2)ccc1NC(=O)c1ccccc1
T/C [1]: 87 % of control
T/C [2]: 93 % of control

CC(=O)OCC(C)CCC1OC2CC3C4CCC5CC(OC(C)=O)CCC5(C)C4CCC3(C)C2C1C (stereo not given)
T/C [3]: 100 % of control
T/C [4]: 101 % of control
T/C [5]: 94 % of control

CC12CCC3C4CCC(=O)C(CCC(=O)O)=C4CCC3(CO1)C2 (stereo not given)
T/C [3]: 102 % of control
T/C [4]: 95 % of control
T/C [5]: 94 % of control

CCOc1ccc(/C=C/c2ccc3ccccc3[n+]2C)cc1OCC
T/C (endpoint: mean survival time, dose: 25.0 mg/kg/injection, schedule: Q01DX001 (ip), vehicle: saline with Tween-80): 102 % of control

O=C1NC(=O)/C(=C/C=C/c2ccccc2)S1
T/C (endpoint: mean survival time, dose: 12.5 mg/kg/injection, schedule: Q01DX009 (ip), vehicle: saline with Tween-80): 94 % of control and 101 % of control
T/C (endpoint: mean survival time, dose: 25.0 mg/kg/injection, schedule: Q01DX009 (ip), vehicle: saline with Tween-80): 95 % of control and 109 % of control
T/C (endpoint: mean survival time, dose: 50.0 mg/kg/injection, schedule: Q01DX009 (ip), vehicle: saline with Tween-80): 97 % of control and 101 % of control
T/C [1]: 98 % of control and 101 % of control
T/C (endpoint: mean survival time, dose: 200.0 mg/kg/injection, schedule: Q01DX009 (ip), vehicle: saline with Tween-80): 95 % of control and 103 % of control
T/C [2]: 104 % of control
